What was measured:
common chickweed (CC) = experiment: Ex2 PRE greenhouse, % control; format: in vivo, Stellaria media; conditions: 28 DAT, g ai/ha by row: r12-40 2,4-DC 31.25/62.5/125/250/375 (3 rows each) + metazachlor 250/500/750 (cycling), r42-46 2,4-DC 31.25/62.5/125/250/375, r47-49 metazachlor 250/500/750
Description: Test compositions containing 2,4 DC Example 1B and metazachlor (Butisan® S, 43.1% active ingredient, BASF) and mixtures of 2-(2,4-dichlorophenyl)methyl-4,4-dimethyl-3-isoxazolidinone and metazachlor, were diluted with water to provide the appropriate test rate concentrations.
The test crops were wheat and canola (Brassica napus), the test weeds were Italian ryegrass (IR) (Lolium perenne. multiflorum), annual bluegrass (AB) (Poa annua), common lambsquarters (CL) (Chenopodium album), littleseed canarygrass (LC) (Phalaris minor), common chickweed (CC) (Stellaria media), and corn poppy (CP) (Papaver rhoeas).
For pre-emergence testing, four disposable fiber flats (6″ by 10″) for each rate of application of each herbicide solution were filled with top soil, to which seeds of each species were planted in furrows made by a template pressed on the top of the soil. The furrows were covered with soil after planting the seed and were watered well before application of the test compounds. […]
The control of weeds was evaluated in each experimental test at 21 days after treatment (DAT) for corn poppy and wheat and 28 DAT for all other species. […]
Percent control was determined by a method similar to the 0 to 100 rating system disclosed in “Research Methods in Weed Science,” 2nd ed., B. Truelove, Ed.; Southern Weed Science Society; Auburn University, Auburn, Ala., 1977.

Wild oat = experiment: Ex12 PRE 2,4-DC + dimethenamid-P, % control 28 DAT, Colby; format: in vivo, Avena fatua
Description: The tested weeds include: wild buckwheat (Polygonum convolvulus, POLCO), velvetleaf (Abutilon theophrasti, ABUTH), cheat (Bromus secalinus, BROSE), wild oat (Avena fatua, AVEFA), radish (Raphanus sativus, RAPSN), corn poppy (Papaver rhoeas, PAPRH), yellow foxtail (Setaria pumila, SETLU), Italian ryegrass (Lolium perenne ssp. multiflorum, LOLMU). The tested crop was Oilseed rape.
This greenhouse study was conducted to assess the preemergence (PRE) weed control and oilseed rape tolerance with 2,4 DC (CS 36.7%) and dimethenamid-P (Outlook®, 63.9%) tank-mix combinations.
Metazachlor (Butisan, 43.1%) plus dimethenamid-P applied as tank mix at 500 g each was applied as commercial standard. Treatments were replicated 3 times and flats were watered after planting but before the treatment and then lightly watered after treatment application. Thereafter flats were watered and fertilized routinely.

Common lambsquarters = experiment: Ex13 PRE 2,4-DC + diflufenican, % control 28 DAT, Colby; format: in vivo, Chenopodium album
From the text: Pyroxasulfone (KIH-485, 85%) at 74.3 g ai/ha, pendimethalin (Prowl 3.3EC, 37.4%) at 1200 g ai/ha, or a premix of chlorsulfuron plus metsulfuron-methyl (Report Extra, 75%) at 15.8 g ai/ha were applied as commercial standards. […] Treatments were replicated 3 times and flats were watered after planting before the treatment and lightly watered after treatment application. Thereafter flats were watered and fertilized routinely.

Ivyleaf morningglory = experiment: Ex17 PRE 2,4 DC + isoxaflutole, % control 28 DAT, Colby; format: in vivo, Ipomoea hederacea
Description: (§1) In this example a study was conducted to determine weed efficacy and sugarcane injury when 2,4 DC or isoxaflutole are applied either alone or tank-mix as preemergence against the weeds: Ivyleaf morningglory (Ipomoea hederacea, IPOHE), hairy beggartickss (Bidens pilosa, BIDPI), yellow nutsedge (Cyperus esculentus, CYPES), large crabgrass (Digitaria sanguinalis, DIGSA), and redroot pigweed (Amaranthus retroflexus, AMARE). The crop tested in this study was Sugarcane (var. CTC 20).
To determine weed efficacy and sugarcane selectivity, 2,4 DC (SC 36%) and isoxaflutole (Balance Flexx®, 20%) were applied PRE either alone or as tank-mix partners at rates mentioned below. 2,4 DC was applied at 500, 750, and 1000 g ai/ha while isoxaflutole was applied at 80, 100, and 120 g ai/ha. […] Treatments were applied PRE to sugarcane (var. CTC 20), ivyleaf morningglory, hairy beggarticks, yellow nutsedge, large crabgrass, and redroot pigweed. […] Soil was watered before application and watered lightly after application. Flats were watered and fertilized routinely after treatment application.

Wild buckwheat = experiment: Ex34 PRE 2,4-DC + napropamide, % control, Colby; format: in vivo, Polygonum convolvulus; conditions: 28 DAT
From the text: (§2) Thereafter flats were watered and fertilized routinely.

Wild mustard = experiment: Ex35 PRE 2,4-DC + dimethachlor + napropamide, % control 28 DAT, Colby; format: in vivo, Sinapis arvensis
From the text: Crops screened were wheat and canola.

[1] = tested on: weeds; Sugarcane (var. CTC 20); experiment: Ex17 PRE greenhouse; format: in vivo; conditions: weed and rate in the words
Description: as §1
To determine weed efficacy and sugarcane selectivity, 2,4 DC (SC 36%) and isoxaflutole (Balance Flexx®, 20%) were applied PRE either alone or as tank-mix partners at rates mentioned below. 2,4 DC was applied at 500, 750, and 1000 g ai/ha while isoxaflutole was applied at 80, 100, and 120 g ai/ha. […] Treatments were applied PRE to sugarcane (var. CTC 20), ivyleaf morningglory, hairy beggarticks, yellow nutsedge, large crabgrass, and redroot pigweed. Weed species were planted in fiber flats (6″×10″) containing Pennington soil. Soil was watered before application and watered lightly after application. Flats were watered and fertilized routinely after treatment application.

weeds; canola = experiment: Ex34 PRE greenhouse; format: in vivo; conditions: rate in the words
From the text: as §2

weeds; wheat, and corn = experiment: Ex38 PRE greenhouse; format: in vivo; conditions: rate in the words
From the text: Pyroxasulfone plus fluthiacet-methyl (ANTHEM™, 23.3%) applied at 165 g ai/ha was included as a standard for comparison. […] Thereafter flats were watered and fertilized routinely.

[2] = tested on: sweet corn, yellow corn, and sorghum; conditions: PRE; crop and rate in the words
From the text: Treatments were also applied ot sweet corn, yellow corn, and sorghum.
Treatments were applied before the emergence of Jimsonweed, velvetleaf, hairy beggarticks, common cocklebur, barnyardgrass, sweet corn, yellow corn, and sorghum. Plant species were planted in fiber flats (6″×10″) containing Pennington soil and flats were watered well before application and watered lightly after application. Flats were watered and fertilized routinely after treatment application.

CC1(C)CON(Cc2ccc(Cl)cc2Cl)C1=O [2,4-DC, 2-(2,4-dichlorophenyl)methyl-4,4-dimethyl-3-isoxazolidinone]
% Control CC (common chickweed (CC)): 100% | X (Wild oat; 2,4-DC alone 125 g ai/ha): 9% | X (Wild oat; 2,4-DC alone 170 g ai/ha): 27% | X (Wild oat; 2,4-DC alone 210 g ai/ha): 27% | X (Wild oat; 2,4-DC alone 250 g ai/ha): 29% | X (Common lambsquarters; 2,4-DC alone 125 g ai/ha): 15% | X (Common lambsquarters; 2,4-DC alone 170 g ai/ha): 26% | X (Common lambsquarters; 2,4-DC alone 210 g ai/ha): 58% | X (Common lambsquarters; 2,4-DC alone 250 g ai/ha): 60% | X (Ivyleaf morningglory; 2,4-DC alone 500 g ai/ha): 67% | X (Ivyleaf morningglory; 2,4-DC alone 750 g ai/ha): 78% | X (Ivyleaf morningglory; 2,4-DC alone 1000 g ai/ha): 88% | X (Wild buckwheat; 2,4-DC alone 31 g ai/ha): 10% | X (Wild buckwheat; 2,4-DC alone 63 g ai/ha): 8% | X (Wild buckwheat; 2,4-DC alone 125 g ai/ha): 8% | X (Wild buckwheat; 2,4-DC alone 250 g ai/ha): 23% | X (Wild buckwheat; 2,4-DC alone 375 g ai/ha): 37% | X (Wild mustard; 2,4-DC alone 50 g ai/ha): 12% | X (Wild mustard; 2,4-DC alone 100 g ai/ha): 37% | X (Wild mustard; 2,4-DC alone 200 g ai/ha): 47% | weed control in words [1]: Large crabgrass and redroot pigweed were controlled with 2,4 DC alone at 500 g or higher rates | weed control / crop safety in words (weeds; canola): applied alone at 31.2 g ai/ha controlled common chickweed, at 125 g controlled common lambsquarters and injured canola, at 250 g controlled blackgrass and Italian ryegrass | weed control / crop safety in words (weeds; wheat, and corn): applied alone at ≥50 g ai/ha controlled (≥85%) kochia, at ≥200 g controlled Italian ryegrass or redroot pigweed, and controlled velvetleaf at 400 g | crop safety in words [2]: alone was safe on sweet corn and sorghum at the lowest rate while safe on yellow corn at 50 or 100 g ai/ha

— patent publication US12616203B2, “Use of 3-isoxazolidinones compounds as selective herbicides” (FMC Corporation, priority 2014, dated 2026)
